Measured values published in US20250340557A1, “PYRIMIDINE DERIVATIVE” (ASKA PHARMACEUTICAL CO., LTD., priority 2022, published 2025).

Target: T1, human mPGES-1 (Homo sapiens, UniProt O14684)
T1 construct: made in house; host or cells: COS-1 cells (transient transfection; microsomal fraction used as enzyme)
T1 sequence (O14684 1-152): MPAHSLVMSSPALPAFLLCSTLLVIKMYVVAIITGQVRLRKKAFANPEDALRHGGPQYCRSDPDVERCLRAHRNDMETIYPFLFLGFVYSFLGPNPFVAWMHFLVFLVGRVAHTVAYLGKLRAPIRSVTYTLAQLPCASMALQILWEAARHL
Experiment: Test for mPGES-1 inhibitory activity (microsomal enzyme, PGE2 EIA)
Format: biochemical
Conditions: microsomes of COS-1 cells transfected with human mPGES-1 cDNA; PGH2 1 μM; 4° C., 4 minutes; PGE2 by EIA; read-out: h mPGES1 IC50
Summary of the method: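 IC50 values were derived from EIA-quantified PGE2 after a 4 min, 4 °C reaction with PGH2 at 1 μM final, stopped with ferric chloride/citric acid. Beforehand, compound (2% DMSO final) sat 15 min at 4 °C with human mPGES-1 microsomes from transiently transfected COS-1 cells. Buffer was sodium phosphate pH 7.2 containing 2.5 mM reduced glutathione and 1 mM EDTA.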

Structure (SMILES) | IC50 [nM]
O=c1cc(C(F)F)nc(-c2c(C(F)(F)F)ccc(CNC(=O)[C@H]3C[C@H](OCc4ccc(F)cc4Cl)C3)c2F)[nH]1 [Example 173, trans-3-[(2-chloro-4-fluorobenzyl)oxy]-N-{3-[4-(difluoromethyl)-6-oxo-1,6-dihydropyrimidin-2-yl]-2-fluoro-4-(trifluoromethyl)benzyl}cyclobutane-1-carboxamide] | < 1
O=c1cc(C(F)F)nc(-c2c(C(F)(F)F)ccc(CNC(=O)[C@H]3C[C@H](OCc4cccc(Cl)c4F)C3)c2F)[nH]1 [Example 174, trans-3-[(3-chloro-2-fluorobenzyl)oxy]-N-{3-[4-(difluoromethyl)-6-oxo-1,6-dihydropyrimidin-2-yl]-2-fluoro-4-(trifluoromethyl)benzyl}cyclobutane-1-carboxamide] | < 1
O=c1cc(C(F)F)nc(-c2c(C(F)(F)F)ccc(CNC(=O)[C@H]3C[C@H](OCc4cc(Cl)ccc4F)C3)c2F)[nH]1 [Example 175, trans-3-[(5-chloro-2-fluorobenzyl)oxy]-N-{3-[4-(difluoromethyl)-6-oxo-1,6-dihydropyrimidin-2-yl]-2-fluoro-4-(trifluoromethyl)benzyl}cyclobutane-1-carboxamide] | < 1
O=c1cc(C(F)F)nc(-c2c(C(F)(F)F)ccc(CNC(=O)[C@H]3C[C@H](OCc4ccc(F)c(Cl)c4)C3)c2F)[nH]1 [Example 176, trans-3-[(3-chloro-4-fluorobenzyl)oxy]-N-{3-[4-(difluoromethyl)-6-oxo-1,6-dihydropyrimidin-2-yl]-2-fluoro-4-(trifluoromethyl)benzyl}cyclobutane-1-carboxamide] | < 1
O=c1cc(C(F)F)nc(-c2c(C(F)(F)F)ccc(CNC(=O)[C@H]3C[C@H](OCc4cc(F)cc(Cl)c4)C3)c2F)[nH]1 [Example 177, trans-3-[(3-chloro-5-fluorobenzyl)oxy]-N-{3-[4-(difluoromethyl)-6-oxo-1,6-dihydropyrimidin-2-yl]-2-fluoro-4-(trifluoromethyl)benzyl}cyclobutane-1-carboxamide] | 10
Cc1cc(=O)[nH]c(-c2c(C(F)(F)F)ccc(CNC(=O)[C@H]3C[C@H](OCc4ccccc4Cl)C3)c2F)n1 [Example 178, trans-3-[(2-chlorobenzyl)oxy]-N-[2-fluoro-3-(4-methyl-6-oxo-1,6-dihydropyrimidin-2-yl)-4-(trifluoromethyl)benzyl]cyclobutane-1-carboxamide] | < 1
Cc1cc(=O)[nH]c(-c2c(C(F)(F)F)ccc(CNC(=O)[C@H]3C[C@H](OCc4cccc(Cl)c4)C3)c2F)n1 [Example 179, trans-3-[(3-chlorobenzyl)oxy]-N-[2-fluoro-3-(4-methyl-6-oxo-1,6-dihydropyrimidin-2-yl)-4-(trifluoromethyl)benzyl]cyclobutane-1-carboxamide] | < 1
Cc1cc(=O)[nH]c(-c2c(C(F)(F)F)ccc(CNC(=O)[C@H]3C[C@H](OCc4ccc(Cl)cc4)C3)c2F)n1 [Example 180, trans-3-[(4-chlorobenzyl)oxy]-N-[2-fluoro-3-(4-methyl-6-oxo-1,6-dihydropyrimidin-2-yl)-4-(trifluoromethyl)benzyl]cyclobutane-1-carboxamide] | 1.7
Cc1cc(=O)[nH]c(-c2c(C(F)(F)F)ccc(CNC(=O)[C@H]3C[C@H](OCc4ccccc4C(F)(F)F)C3)c2F)n1 [Example 181, trans-N-[2-fluoro-3-(4-methyl-6-oxo-1,6-dihydropyrimidin-2-yl)-4-(trifluoromethyl)benzyl]-3-{[2-(trifluoromethyl)benzyl]oxy}cyclobutane-1-carboxamide] | 19
Cc1cc(=O)[nH]c(-c2c(C(F)(F)F)ccc(CNC(=O)[C@H]3C[C@H](OCc4cccc(C(F)(F)F)c4)C3)c2F)n1 [Example 182, trans-N-[2-fluoro-3-(4-methyl-6-oxo-1,6-dihydropyrimidin-2-yl)-4-(trifluoromethyl)benzyl]-3-{[3-(trifluoromethyl)benzyl]oxy}cyclobutane-1-carboxamide] | 12
Cc1cc(=O)[nH]c(-c2c(C(F)(F)F)ccc(CNC(=O)[C@H]3C[C@H](OCc4ccc(C(F)(F)F)cc4)C3)c2F)n1 [Example 183, trans-N-[2-fluoro-3-(4-methyl-6-oxo-1,6-dihydropyrimidin-2-yl)-4-(trifluoromethyl)benzyl]-3-{[4-(trifluoromethyl)benzyl]oxy}cyclobutane-1-carboxamide] | 10
Cc1cc(=O)[nH]c(-c2c(C(F)(F)F)ccc(CNC(=O)[C@H]3C[C@H](OCc4ccc(F)cc4F)C3)c2F)n1 [Example 184, trans-3-[(2,4-difluorobenzyl)oxy]-N-[2-fluoro-3-(4-methyl-6-oxo-1,6-dihydropyrimidin-2-yl)-4-(trifluoromethyl)benzyl]cyclobutane-1-carboxamide] | < 1
Cc1cc(=O)[nH]c(-c2c(C(F)(F)F)ccc(CNC(=O)[C@H]3C[C@H](OCc4ccc(Cl)cc4F)C3)c2F)n1 [Example 185, trans-3-[(4-chloro-2-fluorobenzyl)oxy]-N-[2-fluoro-3-(4-methyl-6-oxo-1,6-dihydropyrimidin-2-yl)-4-(trifluoromethyl)benzyl]cyclobutane-1-carboxamide] | 1.2
Cc1cc(=O)[nH]c(-c2c(C(F)(F)F)ccc(CNC(=O)[C@H]3C[C@H](OCc4ccc(F)c(F)c4)C3)c2F)n1 [Example 186, trans-3-[(3,4-difluorobenzyl)oxy]-N-[2-fluoro-3-(4-methyl-6-oxo-1,6-dihydropyrimidin-2-yl)-4-(trifluoromethyl)benzyl]cyclobutane-1-carboxamide] | 3.2

Continued, values first:

IC50 [nM] | Structure (SMILES)
6.4 | Cc1cc(=O)[nH]c(-c2c(C(F)(F)F)ccc(CNC(=O)[C@H]3C[C@H](OCc4cc(F)cc(F)c4)C3)c2F)n1 [Example 187, trans-3-[(3,5-difluorobenzyl)oxy]-N-[2-fluoro-3-(4-methyl-6-oxo-1,6-dihydropyrimidin-2-yl)-4-(trifluoromethyl)benzyl]cyclobutane-1-carboxamide]
10 | Cc1cc(=O)[nH]c(-c2c(C(F)(F)F)ccc(CNC(=O)[C@H]3C[C@H](OCc4cccc(F)c4)C3)c2F)n1 [Example 188, trans-N-[2-fluoro-3-(4-methyl-6-oxo-1,6-dihydropyrimidin-2-yl)-4-(trifluoromethyl)benzyl]-3-[(3-fluorobenzyl)oxy]cyclobutane-1-carboxamide]
13 | Cc1cc(=O)[nH]c(-c2c(C(F)(F)F)ccc(CNC(=O)[C@H]3C[C@H](OCc4cccc(F)c4F)C3)c2F)n1 [Example 189, trans-3-[(2,3-difluorobenzyl)oxy]-N-[2-fluoro-3-(4-methyl-6-oxo-1,6-dihydropyrimidin-2-yl)-4-(trifluoromethyl)benzyl]cyclobutane-1-carboxamide]
< 1 | Cc1cc(=O)[nH]c(-c2c(C(F)(F)F)ccc(CNC(=O)[C@H]3C[C@H](OCc4ccc(F)cc4Cl)C3)c2F)n1 [Example 190, trans-3-[(2-chloro-4-fluorobenzyl)oxy]-N-[2-fluoro-3-(4-methyl-6-oxo-1,6-dihydropyrimidin-2-yl)-4-(trifluoromethyl)benzyl]cyclobutane-1-carboxamide]
< 1 | Cc1cc(=O)[nH]c(-c2c(C(F)(F)F)ccc(CNC(=O)[C@H]3C[C@H](OCc4cccc(Cl)c4F)C3)c2F)n1 [Example 191, trans-3-[(3-chloro-2-fluorobenzyl)oxy]-N-[2-fluoro-3-(4-methyl-6-oxo-1,6-dihydropyrimidin-2-yl)-4-(trifluoromethyl)benzyl]cyclobutane-1-carboxamide]
< 1 | Cc1cc(=O)[nH]c(-c2c(C(F)(F)F)ccc(CNC(=O)[C@H]3C[C@H](OCc4cc(Cl)ccc4F)C3)c2F)n1 [Example 192, trans-3-[(5-chloro-2-fluorobenzyl)oxy]-N-[2-fluoro-3-(4-methyl-6-oxo-1,6-dihydropyrimidin-2-yl)-4-(trifluoromethyl)benzyl]cyclobutane-1-carboxamide]
< 1 | Cc1cc(=O)[nH]c(-c2c(C(F)(F)F)ccc(CNC(=O)[C@H]3C[C@H](OCc4ccc(F)c(Cl)c4)C3)c2F)n1 [Example 193, trans-3-[(3-chloro-4-fluorobenzyl)oxy]-N-[2-fluoro-3-(4-methyl-6-oxo-1,6-dihydropyrimidin-2-yl)-4-(trifluoromethyl)benzyl]cyclobutane-1-carboxamide]
3.6 | Cc1cc(=O)[nH]c(-c2c(C(F)(F)F)ccc(CNC(=O)[C@H]3C[C@H](OCc4cc(F)cc(Cl)c4)C3)c2F)n1 [Example 194, trans-3-[(3-chloro-5-fluorobenzyl)oxy]-N-[2-fluoro-3-(4-methyl-6-oxo-1,6-dihydropyrimidin-2-yl)-4-(trifluoromethyl)benzyl]cyclobutane-1-carboxamide]
< 1 | CCc1cc(=O)[nH]c(-c2c(C(F)(F)F)ccc(CNC(=O)[C@H]3C[C@H](OCc4ccccc4Cl)C3)c2F)n1 [Example 195, trans-3-[(2-chlorobenzyl)oxy]-N-[3-(4-ethyl-6-oxo-1,6-dihydropyrimidin-2-yl)-2-fluoro-4-(trifluoromethyl)benzyl]cyclobutane-1-carboxamide]
< 1 | CCc1cc(=O)[nH]c(-c2c(C(F)(F)F)ccc(CNC(=O)[C@H]3C[C@H](OCc4cccc(Cl)c4)C3)c2F)n1 [Example 196, trans-3-[(3-chlorobenzyl)oxy]-N-[3-(4-ethyl-6-oxo-1,6-dihydropyrimidin-2-yl)-2-fluoro-4-(trifluoromethyl)benzyl]cyclobutane-1-carboxamide]
3.7 | CCc1cc(=O)[nH]c(-c2c(C(F)(F)F)ccc(CNC(=O)[C@H]3C[C@H](OCc4ccc(Cl)cc4)C3)c2F)n1 [Example 197, trans-3-[(4-chlorobenzyl)oxy]-N-[3-(4-ethyl-6-oxo-1,6-dihydropyrimidin-2-yl)-2-fluoro-4-(trifluoromethyl)benzyl]cyclobutane-1-carboxamide]
